Experimental data: paper PMC9224512, “New Insights into the Determinants of Specificity in Human Type I Arginase: Generation of a Mutant That Is Only Active with Agmatine as Substrate” (International Journal of Molecular Sciences, 2022)
Numbering of substitutions follows the chain as printed.

Legend:
[1] = target: T1, WT-arginase (human arginase type I) (Homo sapiens, UniProt P05089); test: Kinetic and inhibition studies, wild-type human arginase type I; type: biochemical; details: for Inhibition type / Kis (Ki): substrate arginine
T1 construct: made in house; host or cells: E. coli JM109
T1 sequence (P05089 1-322): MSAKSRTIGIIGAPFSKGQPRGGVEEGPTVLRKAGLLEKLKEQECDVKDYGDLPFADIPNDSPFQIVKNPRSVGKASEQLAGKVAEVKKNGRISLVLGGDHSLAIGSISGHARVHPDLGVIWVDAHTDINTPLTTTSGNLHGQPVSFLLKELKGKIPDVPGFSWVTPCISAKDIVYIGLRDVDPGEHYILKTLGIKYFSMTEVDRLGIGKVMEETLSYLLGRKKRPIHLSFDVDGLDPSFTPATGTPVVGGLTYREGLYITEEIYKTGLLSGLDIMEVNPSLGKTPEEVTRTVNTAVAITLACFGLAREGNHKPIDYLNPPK
Description: (§1) Bacterial cultures were grown with shaking at 37 °C in Luria Broth media, in the presence of ampicillin (100 μg/mL). The wild-type and mutant human liver arginase cDNAs were directionally cloned into the pBluescript II KS(+) expression vector and then expressed in E. coli JM109, following induction with 1 mM isopropyl β-D-thiogalactopyranoside. The bacterial cells were disrupted by sonication on ice (5 × 30 s pulses), centrifuged for 20 min at 12,000× g, and the obtained supernatant was precipitated with ammonium sulfate (60% saturation). The pellet, collected by centrifugation at 12,000× g for 10 min, was re-suspended in buffer 5 mM Tris–HCl (pH 7.5) containing 2 mM MnCl2 and dialyzed for 6 h at 4 °C against the same buffer. After incubation with 5 mM MnCl2 for 10 min at 60 °C, the enzyme variants were purified as previously described. The purity of the enzymes was evaluated by SDS–PAGE stained by Coomassie blue and immunodetection using an anti- rat arginase I antibody.
(§2) All assays were initiated by adding the enzyme to a previously equilibrated buffer with the substrate in solution (the concentrations of used substrates were between 0.2–3 fold the Km). Urea was determined by a colorimetric method with α-isonitrosopropiophenone. The protein concentrations were determined by the Bradford’s method, with bovine serum albumin as standard. Initial velocity and enzymatic inhibition experiments were performed in duplicate and repeated three times. The inhibitory patterns were initially determined by double reciprocal plots and re-plots of intercepts and slopes versus inhibitor concentrations. […] Velocities are expressed as μmol of urea/10 min.

[2] = target: T2, human arginase type I N130D (Homo sapiens, UniProt P05089, N130D); test: Kinetic and inhibition studies, N130D mutant; type: biochemical; details: arginine 5 mM, pH 9.5; Figure 3A
T2 sequence (P05089 1-322 N130D): T1 sequence (P05089 1-322) with N130D
Description: as §1
(§3) The single, double, triple, and chimera variants of human arginase type I were obtained by PCR, using the QuickChange site-directed mutagenesis kit (Stratagene, La Jolla, CA, USA); the plasmid pBluescript II KS(+) containing the human liver arginase cDNA was used as template. To obtain the chimeric species of human arginase type I, serial mutations were made in each loop to be modified, using as template DNA the wild-type arginase gene or the previous done mutation, subcloned in the plasmid pBluescript II KS (+). Specifically, the residues present in the arginase structure were replaced by those corresponding to the agmatinase sequence of E. coli.
as §2

[3] = target: T3, human arginase type I S137C (Homo sapiens, UniProt P05089, S137C); test: Kinetic and inhibition studies, S137C mutant; type: biochemical; details: arginine 5 mM, pH 9.5; Figure 3A
T3 sequence (P05089 1-322 S137C): T1 sequence (P05089 1-322) with S137C
Description: as §1, §3, §2

[4] = target: T4, human arginase type I N139D (Homo sapiens, UniProt P05089, N139D); test: Kinetic and inhibition studies, N139D mutant; type: biochemical; details: arginine 5 mM, pH 9.5; Figure 3A
T4 sequence (P05089 1-322 N139D): T1 sequence (P05089 1-322) with N139D
Description: as §1, §3, §2

E. coli agmatinase = target: T5, E. coli agmatinase (Escherichia coli, UniProt P60651); test: Kinetic studies, E. coli agmatinase; type: biochemical; details: substrate = labelled compound; n/a = no activity with the substrate
T5 sequence (P60651 1-306): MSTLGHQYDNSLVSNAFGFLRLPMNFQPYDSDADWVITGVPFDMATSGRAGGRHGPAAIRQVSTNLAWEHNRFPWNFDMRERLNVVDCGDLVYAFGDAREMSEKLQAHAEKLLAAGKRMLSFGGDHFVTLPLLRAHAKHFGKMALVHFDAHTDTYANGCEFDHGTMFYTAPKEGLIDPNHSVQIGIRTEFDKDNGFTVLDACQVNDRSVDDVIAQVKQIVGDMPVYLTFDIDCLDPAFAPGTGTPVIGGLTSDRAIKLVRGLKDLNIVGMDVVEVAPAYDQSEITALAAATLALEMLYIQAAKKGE
Description: as §2

[5] = target: T6, Chimera A1 (I129T/N130Y/T131A) of human arginase type I (Homo sapiens, UniProt P05089, I129T/N130Y/T131A); test: Kinetic and inhibition studies, Chimera A1; type: biochemical; details: substrate arginine
T6 sequence (P05089 1-322 I129T/N130Y/T131A): T1 sequence (P05089 1-322) with I129T, N130Y, T131A
Description: as §1, §3, §2

rat liver arginase = tested on: rat liver arginase; parameters: method as in PMID 8031143; details: substrate agmatine; cited from earlier work
[6] = target: T7, Chimera A2 (I129T/N130Y/T131A+∆ P132-T134) of human arginase type I (Homo sapiens, UniProt P05089, DEL129-131/I129T/L133Y/N130Y/P132T/T134A); test: Kinetic and inhibition studies, Chimera A2; type: biochemical; details: substrate agmatine
T7 construct: made in house; host or cells: E. coli JM109
T7 sequence (P05089 with tags, fused parts or gaps DEL129-131/P132T/L133Y/T134A): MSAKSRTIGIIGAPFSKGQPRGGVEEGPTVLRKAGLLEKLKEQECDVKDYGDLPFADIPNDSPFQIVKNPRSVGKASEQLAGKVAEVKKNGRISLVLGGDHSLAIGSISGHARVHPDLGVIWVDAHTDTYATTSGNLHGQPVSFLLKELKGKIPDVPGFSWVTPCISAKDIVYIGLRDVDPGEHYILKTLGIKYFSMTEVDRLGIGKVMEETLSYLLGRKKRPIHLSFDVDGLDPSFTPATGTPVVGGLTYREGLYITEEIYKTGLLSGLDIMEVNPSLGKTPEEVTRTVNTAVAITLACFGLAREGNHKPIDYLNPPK
Description: as §1, §3, §2

[7] = target: T8, type I human arginase D181T (Homo sapiens, UniProt P05089, D181T); test: Kinetic and inhibition studies, D181T mutant; type: biochemical; details: substrate arginine
T8 sequence (P05089 1-322 D181T): T1 sequence (P05089 1-322) with D181T
Description: as §1, §3, §2

[8] = target: T9, type I human arginase V182E (Homo sapiens, UniProt P05089, V182E); test: Kinetic and inhibition studies, V182E mutant; type: biochemical; details: substrate arginine
T9 sequence (P05089 1-322 V182E): T1 sequence (P05089 1-322) with V182E
Description: as §1, §3, §2

[9] = target: T10, type I human arginase D181T/V182E (Homo sapiens, UniProt P05089, D181T/V182E); test: Kinetic and inhibition studies, D181T/V182E double mutant; type: biochemical; details: substrate arginine
T10 construct: made in house; host or cells: E. coli JM109
T10 sequence (P05089 1-322 D181T/V182E): T1 sequence (P05089 1-322) with D181T, V182E
Description: as §1, §3, §2

[10] = target: T11, type I human arginase D181T/V182E + ins F (Homo sapiens, UniProt P05089, D181E/D181T/INS180T/V182E/V182F); test: Kinetic and inhibition studies, D181T/V182E + ins F; type: biochemical; details: substrate arginine
T11 sequence (P05089 with tags, fused parts or gaps INS180T/D181E/V182F): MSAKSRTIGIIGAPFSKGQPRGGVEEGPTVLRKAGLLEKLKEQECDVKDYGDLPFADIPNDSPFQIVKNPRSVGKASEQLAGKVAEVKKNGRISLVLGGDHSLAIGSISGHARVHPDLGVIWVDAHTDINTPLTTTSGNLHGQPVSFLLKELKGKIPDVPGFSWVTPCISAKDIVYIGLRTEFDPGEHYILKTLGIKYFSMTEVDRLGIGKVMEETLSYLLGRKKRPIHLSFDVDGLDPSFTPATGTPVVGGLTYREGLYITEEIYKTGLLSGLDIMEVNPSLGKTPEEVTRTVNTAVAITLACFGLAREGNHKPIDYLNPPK
Description: as §1, §3, §2

**Q.** What does the source list for `N=C(N)NCCCCN` [Agmatine, 1-amino-4-guanidinobutane]?
**A.** Inhibition of arginase activity by agmatine ([1]; arginine 5 mM, pH 9.5, Figure 3A): poorly inhibited; Inhibition type [1]: Competitive; Kis (Ki) ([1]; pH 9.5): 42 ± 5 mM; Inhibition of arginase activity by agmatine [2]: markedly sensitive; Inhibition of arginase activity by agmatine [3]: markedly sensitive; Inhibition of arginase activity by agmatine [4]: markedly sensitive; kcat (E. coli agmatinase): 120 ± 10 s⁻¹; Inhibition type [5]: Competitive; Kis (Ki) [5]: 27 ± 2 mM; kcat, times lower than for arginine (rat liver arginase): approximately 5000 times

**Q.** With `N=C(N)N` [Guanidine, guanidine] as the compound, how does the “Inhibition type” value [1] read?
**A.** Competitive

**Q.** And the “Kis (Ki)” value ([1]; pH 9.5)?
**A.** 56 ± 4 mM

**Q.** What about the “Inhibition type” value [5] of the same compound?
**A.** Competitive

**Q.** What about the “Kis (Ki)” value [5] of the same compound?
**A.** 38 ± 6 mM

**Q.** What about the “Inhibition type” value [6] of the same compound?
**A.** linear competitive inhibition

**Q.** What about the Kis [6] of the same compound?
**A.** 40 ± 6 mM

**Q.** What about the Inhibition type [7] of the same compound?
**A.** Competitive

**Q.** What about the Kis [7] of the same compound?
**A.** 85 ± 10 mM

**Q.** And the Inhibition type [8]?
**A.** Competitive

**Q.** What about the Kis [8] of the same compound?
**A.** 89 ± 12 mM

**Q.** What about the Inhibition type [9] of the same compound?
**A.** Competitive

**Q.** What about the “Kis (Ki)” value [9] of the same compound?
**A.** 80 ± 5 mM

**Q.** What about the Inhibition type [10] of the same compound?
**A.** Competitive

**Q.** What about the Kis [10] of the same compound?
**A.** 70 ± 10 mM

**Q.** With `NCCCC[C@H](N)C(=O)O` [Lysine, lysine] as the compound, how does the “Kis (Ki)” value ([1]; pH 9.5) read?
**A.** 5 mM

**Q.** And the Inhibition type [9]?
**A.** competitively inhibited

**Q.** And the “Kis (Ki)” value [9]?
**A.** 42 mM

**Q.** Which “Inhibition type” value [6] does the source give for `NCCCCN` [Putrescine, putrescine] here?
**A.** competitive

**Q.** And the Inhibition type [9]?
**A.** competitively inhibited
